Data published in patent publication US7335661B2, “Fungicidal mixtures” (BASF Aktiengesellschaft, priority 2002, dated 2008).

Columns and labels:
Puccinia recondita = test: Curative activity against wheat leaf rust caused by Puccinia recondita; type: in vivo; conditions: individual active compound, 7 days
Method: (§1) The active compounds, separately or jointly, were prepared as a stock solution with 0.25% by weight of active compound in acetone or DMSO. 1% by weight of the emulsifier Uniperol® EL (wetting agent having emulsifying and dispersing action based on ethoxylated alkylphenols) was added to this solution, and the solution was diluted with water to the desired concentration.
Leaves of potted wheat seedlings of the cultivar “Kanzler” were dusted with spores of leaf rust (Puccinia recondita). For 24 hours, the pots were then placed at 20-22_C in a chamber with high atmospheric humidity (90-95%). During this time, the spores germinated and the germinal tubes penetrated into the leaf tissue. The next day, the infected plants were sprayed to runoff point with an aqueous suspension having the concentration of active compounds stated below. The suspension or emulsion was prepared as described above. After the spray coating had dried on, the test plants were cultivated in a greenhouse at 20-22_C and 65-70% relative atmospheric humidity for 7 days. The extent of rust fungus development on the leaves was then determined.
(§2) Evaluation was carried out by determining the infected leaf areas as a percentage. These percentages were converted into efficacies. The efficacy (W) was calculated as follows using Abbot's formula: W=(1−a/b)·100 • a corresponds to the fungal infection of the treated plants in % and • b corresponds to the fungal infection of the untreated (control) plants in %
(§3) An efficacy of 0 means that the infection level of the treated plants corresponds to that of the untreated control plants; an efficacy of 100 means that the treated plants were not infected.
(§4) The expected efficacies of the mixtures of the active compounds were determined using Colby's formula [R. S. Colby, Weeds 15, 20-22 (1967)] and compared with the observed efficacies. Colby's formula: E=x+y−x·y/100 • E expected efficacy, expressed as % of the untreated control, when using the mixture of the active compounds A and B at the concentrations a and b • x efficacy, expressed as % of the untreated control, when using active compound A at a concentration a • y efficacy, expressed as % of the untreated control, when using active compound B at a concentration b

Botrytis cinerea = test: Activity against gray mold on bellpepper leaves caused by Botrytis cinerea, protective application; type: in vivo; conditions: individual active compound, bellpepper seedlings, 5 days
Method: as §1, §2, §3, §4
Bellpepper seedlings of the cultivar “Neusiedler Ideal Elite” were, after 4-5 leaves were well developed, sprayed to runoff point with an aqueous suspension having the active compound concentration stated below. The next day, the treated plants were inoculated with a spore suspension of Botrytis cinerea which contained 1.7×10^6 spores/ml in a 2% strength aqueous biomalt solution. The test plants were then placed in a climatized chamber at 22-24_C and high atmospheric humidity. After 5 days, the extent of the fungus development on the leaves could be determined visually in %.
Evaluation was carried out analogously to example 1.

[1] = 4 ppm in the spray liquor, wheat seedlings cv. Kanzler

| Compound | Efficacy in % of the untreated control (Puccinia recondita; 1 ppm in the spray liquor, wheat seedlings) | Efficacy in % of the untreated control (Puccinia recondita; [1]) | Efficacy in % of the untreated control (Botrytis cinerea; 0.25 ppm in the spray liquor) | Efficacy in % of the untreated control (Botrytis cinerea; 1 ppm in the spray liquor) | Efficacy in % of the untreated control (Botrytis cinerea; 4 ppm in the spray liquor) | Efficacy in % of the untreated control (Puccinia recondita; 0.25 ppm in the spray liquor, wheat seedlings) |
| --- | --- | --- | --- | --- | --- | --- |
| CC1CCN(c2c(-c3c(F)cc(F)cc3F)c(Cl)nc3ncnn23)CC1 [I, 5-chloro-7-(4-methylpiperidin-1-yl)-6-(2,4,6-trifluorophenyl)-[1,2,4]triazolo[1,5-a]pyrimidine] | 0% | 56% | 0% | 37% | 68% |  |
| O=C(Nc1ccccc1-c1ccc(Cl)cc1)c1cccnc1Cl [II-5, boscalid, reference compound] |  | 0% | 0% | 0% |  | 0% |
